# Assay results: patent US11318119B2 (Gilead Sciences, Inc., priority 2019, dated 2022)
# Where two headings read alike, the source gives them in different places.
# Experiments:
# [1] = tested on: single replication cycle recombinant virus containing the protease and reverse transcriptase coding regions of HIV-1 from a patient blood sample; type: cell-based; conditions: for mean fold change in susceptibility: mean over the resistant panel of Table 2
# From the text: Resistance testing was done by Monogram Biosciences using their proprietary PhenoSense HIV assay. This assay evaluates drug susceptibility by using a single replication cycle recombinant virus containing the protease (amino acids 1-99 plus p7/p1/p6 gag cleavage sites) and reverse transcriptase (amino acids 1-304) coding regions of HIV-1 from a patient blood sample.
# in vitro = conditions: human, microsomes
# Method: Liver Microsomal Stability Protocol
# Test compounds and one control compound (verapamil) were tested in 3 different species in duplicate sets.
# Reaction composition (in each incubation well) contains:
# After plates were vortexed, they were centrifuged for 30 minutes to remove proteins. About 100 μL supernatant was removed to a new plate and diluted with 150 μL water. About 20 μL of the mixture was injected into LC/MS/MS system to monitor the compound's response. In vitro measured t1/2 was used to calculate Clint values.
# [2] = tested on: HIV-1 (IIIB) in MT-4 cells; experiment: MT-4 HIV Assay (inhibition of HIV-1 replication, Cell Titer Glo readout); type: cell-based; conditions: Human immunodeficiency virus 1, MT4, 120 h, 5 days incubation
# Method: (§1) Compounds were tested in a high-throughput 384-well assay format for their ability to inhibit the replication of HIV-1 (IIIB) in MT-4 cells. Compounds were serially diluted (1:3) in DMSO on 384-well polypropylene plates and further diluted 200-fold into complete RPMI media (10% FBS, 1% P/S) using the Biotek Micro Flow and Agilent ECHO acoustic dispenser. Each plate contained up to 8 test compounds, with negative (No Drug Control) and 5 uM AZT positive controls. MT-4 cells were pre-infected with 10 uL of either RPMI (mock-infected) or a fresh 1:250 dilution of an HIV-1 (IIIB) concentrated virus stock. Infected and uninfected MT-4 cells were further diluted in complete RPMI media and added to each plate using a Micro Flow dispenser. After 5 days incubation in a humidified and temperature controlled incubator (37° C.), Cell Titer Glo (Promega) was added to the assay plates to quantify the amount of luciferase.
# recombinant HIV protease = target: T1, recombinant HIV protease (Human immunodeficiency virus type 1 group M subtype B, UniProt P04585); experiment: HIV Protease Enzyme Inhibition (PI) Activity, fluorogenic enzymatic assay; type: biochemical
# T1 construct: recombinant HIV protease
# Method: HIV Protease Enzyme Inhibition (PI) Activity
# Inhibitor potency against HIV protease can be measured using an enzymatic assay with a fluorogenic readout. To a reaction buffer containing 100 mM ammonium acetate at pH 5.3, 100 mM NaCl, 1 mM EDTA, 1 mM DTT, 0.25 mg/mL BSA and 1% DMSO are added 10 nM of recombinant HIV protease (concentration based on protein monomer) and test compound at one of various concentrations. After a 10-minute pre-incubation, the enzymatic reaction is initiated by the addition of the fluorogenic substrate (2-aminobenzoyl)Thr-Ile-Nle-(p-nitro)Phe-Gln-Arg (Bachem; Product No. H-2992) (SEQ ID NO: 1) to a final concentration of 40 μM. The total volume of the assay solution is 100 μL. The reaction is measured over 10 minutes on a Tecan Infinite M1000 plate reader using an excitation wavelength of 320 nm and a detection wavelength of 420 nm. The slopes of the progress curves are the measure of reaction rates. Reaction rates are plotted as a function of inhibitor concentration, and the data are fit with a four-parameter logistic fit using Graphpad PRISM software to yield IC50 values.
# [3] = tested on: HIV-1 (IIIB) in MT-4 cells; experiment: MT-4 HIV High Resolution Antiviral Assay; type: cell-based; conditions: EC95=(19)^1/hill coefficient x EC50
# Method: as §1
# [4] = Resistance mutations D30N L33F N88D L90M
# [5] = Resistance mutations L10F L33F M46I I50V V82A N88D L89V
# [6] = Resistance mutations L10F M46I I47V I50V I54V G73S I84V L90M
# [7] = Resistance mutations L10F M46L I54V V82A 184V
# [8] = Resistance mutations L10F V32I M46I I47V I50V I54L I84V
# [9] = Resistance mutations L10F/L D30N I54V N88D L90M
# [10] = Resistance mutations L10F/L D30N L33F I54L N88D L90M
# [11] = Resistance mutations L10I I50 V82A L90M
# [12] = Resistance mutations L10I L33F G48V I50L I54V/I V82A
# [13] = Resistance mutations L10I L33F M46I I54V V82A I84V
# [14] = Resistance mutations L10I L33F M46L G48V I54M V82A I84V L90M
# [15] = Resistance mutations L10I L33F/L G48V G73S V82A
# [16] = Resistance mutations L10I M46I G48V I50V V82A L90M
# [17] = Resistance mutations L10I M46I I50V
# [18] = Resistance mutations L10I M46L I54V V82A
# [19] = Resistance mutations L10I M46L I54V V82F L90M
# [20] = Resistance mutations L10I V32I L33F M46L I54L I84V L89V
# [21] = Resistance mutations L10I V32I M46I I47V G48V I54M V82T L90M
# [22] = Resistance mutations L10I V32I M46I I47V I50V I54L L90M
# [23] = Resistance mutations L10V L33F I50L L90M
# [24] = Resistance mutations L10V L33F M46I I54V V82A I84V L90M/L
# [25] = Resistance mutations L10V/L M46I I50L V82A
# [26] = Resistance mutations L33F M46I I50V L76V
# [27] = Resistance mutations M46I L76V I84V
# [28] = 10 nM recombinant HIV protease, pH 5.3, 40 μM fluorogenic substrate, read-out: HIV PI IC50
compound,measurement,setting,value
"COC(=O)N[C@H](C(=O)N[C@@H](Cc1ccccc1)[C@@H](O)CN(Cc1ccc(-c2ccccn2)cc1)NC(=O)[C@@H](NC(=O)OC)C(C)(C)C)C(C)(C)C [Atazanavir, methyl N-[(2S)-1-[2-[(2S,3S)-2-hydroxy-3-[[(2S)-2-(methoxycarbonylamino)-3,3-dimethylbutanoyl]amino]-4-phenylbutyl]-2-[(4-pyridin-2-ylphenyl)methyl]hydrazinyl]-3,3-dimethyl-1-oxobutan-2-yl]carbamate, reference compound]",Fold Change in EC50,[1]; [4],4.68
same,Fold Change in EC50,[1]; [5],1.25
same,Fold Change in EC50,[1]; [6],19
same,Fold Change in EC50,[1]; [7],73
same,Fold Change in EC50,[1]; [8],5.44
same,Fold Change in EC50,[1]; [9],29
same,Fold Change in EC50,[1]; [10],15
same,Fold Change in EC50,[1]; [11],33
same,Fold Change in EC50,[1]; [12],70
same,Fold Change in EC50,[1]; [13],44
same,Fold Change in EC50,[1]; [14],70
same,Fold Change in EC50,[1]; [15],>91
same,Fold Change in EC50,[1]; [16],39
same,Fold Change in EC50,[1]; [17],2.39
same,Fold Change in EC50,[1]; [18],9.73
same,Fold Change in EC50,[1]; [19],24
same,Fold Change in EC50,[1]; [20],89
same,Fold Change in EC50,[1]; [21],9.49
same,Fold Change in EC50,[1]; [22],25
same,Fold Change in EC50,[1]; [23],>91
same,Fold Change in EC50,[1]; [24],9.69
same,Fold Change in EC50,[1]; [25],69
same,Fold Change in EC50,[1]; [26],1.84
same,Fold Change in EC50,[1]; [27],1.36
same,mean fold change in susceptibility,[1],17.7
same,half-life at 1 μM,in vitro,0.433 to 1.78 h
CC(C)(C[C@]1(c2ccc(-c3ccc(F)cc3)cc2)NC(=N)N([C@H](COC(=O)NC2(C(F)F)CC2)c2ccc(Cl)c(-c3ncnn3C(F)F)c2)C1=O)C(F)(F)F [Compound 5],EC50,[2],63.1 nM
same,IC50,recombinant HIV protease; [28],4.5 nM
"CC(C)(C[C@]1(c2ccc(-c3cn(C(F)F)cn3)cc2)NC(=N)N([C@H](COC(=O)NC2(C(F)F)CC2)c2ccc(Cl)c(-c3ncnn3C(F)F)c2)C1=O)C(F)(F)F [Compound 9, (S)-2-(4-chloro-3-(1-(difluoromethyl)-1H-1,2,4-triazol-5-yl)phenyl)-2-((R)-4-(4-(1-(difluoromethyl)-1H-imidazol-4-yl)phenyl)-2-imino-5-oxo-4-(3,3,3-trifluoro-2,2-dimethylpropyl)imidazolidin-1-yl)ethyl (1-(difluoromethyl)cyclopropyl)carbamate]",EC50,[2],26.3 nM
same,IC50,recombinant HIV protease,5.7 nM
"CC(C)(C[C@]1(c2ccc(-c3ccn(C(F)F)n3)cc2)NC(=N)N([C@H](COC(=O)NC2(C(F)F)CC2)c2ccc(Cl)c(-c3ncnn3C(F)F)c2)C1=O)C(F)(F)F [Compound 8, (S)-2-(4-chloro-3-(1-(difluoromethyl)-1H-1,2,4-triazol-5-yl)phenyl)-2-((R)-4-(4-(1-(difluoromethyl)-1H-pyrazol-3-yl)phenyl)-2-imino-5-oxo-4-(3,3,3-trifluoro-2,2-dimethylpropyl)imidazolidin-1-yl)ethyl (1-(difluoromethyl)cyclopropyl)carbamate]",EC50,[2],8.4 nM
same,IC50,recombinant HIV protease; [28],2 nM
CC(C)(C[C@]1(c2ccc(-c3ccc(S(C)(=O)=O)cc3F)cc2)NC(=N)N([C@H](COC(=O)NC2(C(F)F)CC2)c2ccc(Cl)c(-c3ncnn3C(F)F)c2)C1=O)C(F)(F)F [Compound 4],EC50,[2],11.3 nM
same,IC50,recombinant HIV protease; [28],2.4 nM
CC(C)(C[C@]1(c2ccc(-c3cnn(C(F)F)c3)cc2)NC(=N)N([C@H](COC(=O)NC2(C(F)F)CC2)c2ccc(Cl)c(-c3ncnn3C(F)F)c2)C1=O)C(F)(F)F [Compound 7],EC50,[2],7.8 nM
same,IC50,recombinant HIV protease; [28],1.8 nM
same,Fold Change in EC50,[1]; [4],3.62
same,Fold Change in EC50,[1]; [5],0.58
same,Fold Change in EC50,[1]; [6],3.51
same,Fold Change in EC50,[1]; [7],0.91
same,Fold Change in EC50,[1]; [8],1.08
same,Fold Change in EC50,[1]; [9],5.32
same,Fold Change in EC50,[1]; [10],2.57
same,Fold Change in EC50,[1]; [11],1.7
same,Fold Change in EC50,[1]; [12],0.72
same,Fold Change in EC50,[1]; [13],2.49
same,Fold Change in EC50,[1]; [14],2.9
same,Fold Change in EC50,[1]; [15],2.34
same,Fold Change in EC50,[1]; [16],9.22
same,Fold Change in EC50,[1]; [17],2.2
same,Fold Change in EC50,[1]; [18],5.84
same,Fold Change in EC50,[1]; [19],4.33
same,Fold Change in EC50,[1]; [20],0.82
same,Fold Change in EC50,[1]; [21],2.84
same,Fold Change in EC50,[1]; [22],3.92
same,Fold Change in EC50,[1]; [23],3.09
same,Fold Change in EC50,[1]; [24],2.6
same,Fold Change in EC50,[1]; [25],4.77
same,Fold Change in EC50,[1]; [26],1.39
same,Fold Change in EC50,[1]; [27],2.04
same,mean fold change in susceptibility,[1],2.4
same,EC95,[3],17.8 nM
"CC(C)(C[C@]1(c2ccc(-c3ccc(S(C)(=O)=O)cc3)cc2)NC(=N)N([C@H](COC(=O)NC2(C(F)F)CC2)c2ccc(Cl)c(-c3ncnn3C(F)F)c2)C1=O)C(F)(F)F [Compound 1, (S)-2-(4-chloro-3-(1-(difluoromethyl)-1H-1,2,4-triazol-5-yl)phenyl)-2-((R)-2-imino-4-(4′-(methylsulfonyl)-[1,1′-biphenyl]-4-yl)-5-oxo-4-(3,3,3-trifluoro-2,2-dimethylpropyl)imidazolidin-1-yl)ethyl (1-(difluoromethyl)cyclopropyl)carbamate]",EC50,[2],13.2 nM
same,IC50,recombinant HIV protease; [28],1.8 nM
same,EC95,[3],24.9 nM
CC(C)(C[C@]1(c2ccc(-c3ccc(S(C)(=O)=O)c(F)c3)cc2)NC(=N)N([C@H](COC(=O)NC2(C(F)F)CC2)c2ccc(Cl)c(-c3ncnn3C(F)F)c2)C1=O)C(F)(F)F [Compound 3],EC50,[2],11.1 nM
same,IC50,recombinant HIV protease; [28],2.9 nM
CC(C)(C[C@]1(c2ccc(-c3cccc(S(C)(=O)=O)c3)cc2)NC(=N)N([C@H](COC(=O)NC2(C(F)F)CC2)c2ccc(Cl)c(-c3ncnn3C(F)F)c2)C1=O)C(F)(F)F [Compound 2],EC50,[2],27.5 nM
same,IC50,recombinant HIV protease; [28],2.9 nM
CC(C)(C[C@]1(c2ccc(-c3cccc(F)c3)cc2)NC(=N)N([C@H](COC(=O)NC2(C(F)F)CC2)c2ccc(Cl)c(-c3ncnn3C(F)F)c2)C1=O)C(F)(F)F [Compound 6],EC50,[2],50 nM
same,IC50,recombinant HIV protease; [28],2.3 nM
